Like-named read-outs stand apart in the source and are kept apart here.
Assays:
human μ-opioid receptor = molecular target: T1, human μ-opioid receptor (Homo sapiens, UniProt P35372); assay: Human μ-opioid receptor radioligand assay ([3H]-DAMGO); assay type: binding
T1 construct: expressed in transfected cells; host or cells: CHO-K1
Experimental: Human μ-Opioid Receptor Radioligand Assay
To investigate binding properties of test compounds to human μ-opioid receptor, transfected CHO-K1 cell membranes and [^3H]-DAMGO (Perkin Elmer, ES-542-C), as the radioligand, were used. The assay was carried out with 20 μg of membrane suspension, 1 nM of [^3H]-DAMGO in either absence or presence of either buffer or 10 μM Naloxone for total and non-specific binding, respectively. Binding buffer contained Tris-HCl 50 mM, MgCl2 5 mM at pH 7.4. Plates were incubated at 27° C. for 60 minutes. After the incubation period, the reaction mix was then transferred to MultiScreen HTS, FC plates (Millipore), filtered and plates were washed 3 times with ice-cold 10 mM Tris-HCL (pH 7.4). Filters were dried and counted at approximately 40% efficiency in a MicroBeta scintillation counter (Perkin-Elmer) using EcoScint liquid scintillation cocktail, preferably, transfected CHO-K1 cell membranes (20 μg) were incubated with 1 nM of [^3H]-DAMGO in assay buffer containing Tris-HCl 50 mM, MgCl2 5 mM at pH 7.4. NBS (non-specific binding) was measured by adding 10 μM Naloxone. The binding of the test compound was measured at five different concentrations. Plates were incubated at 27° C. for 60 minutes. After the incubation period, the reaction mix was then transferred to MultiScreen HTS, FC plates (Millipore), filtered and plates were washed 3 times with ice-cold 10 mM Tris-HCL (pH 7.4). Filters were dried and counted at approximately 40% efficiency in a MicroBeta scintillation counter (Perkin-Elmer) using EcoScint liquid scintillation cocktail.

[1] = molecular target: Human α2δ-1 subunit of Cav2.2 calcium channel (Homo sapiens, UniProt P54289); assay: Human α2δ-1 subunit of Cav2.2 calcium channel assay ([3H]-Gabapentin); assay type: binding
Experimental: Human α2δ-1 Subunit of Cav2.2 Calcium Channel Assay
Human α2δ-1 enriched membranes (2.5 μg) were incubated with 15 nM of radiolabeled [3H]-Gabapentin in assay buffer containing Hepes-KOH 10 mM, pH 7.4. NSB (non specific binding) was measured by adding 10 μM pregabalin. After 60 min incubation at 27° C., binding reaction was terminated by filtering through Multiscreen GF/C (Millipore) presoaked in 0.5% polyethyleneimine in Vacuum Manifold Station, followed by 3 washes with ice-cold filtration buffer containing 50 mM Tris-HCl, pH 7.4. Filter plates were dried at 60° C. for 1 hour and 30 μl of scintillation cocktail were added to each well before radioactivity reading. Readings were performed in a Trilux 1450 Microbeta radioactive counter (Perkin Elmer), i.e. Human α2δ-1 enriched membranes (2.5 μg) were incubated with 15 nM of radiolabeled [3H]-Gabapentin in assay buffer containing Hepes-KOH 10 mM, pH 7.4. NSB (non specific binding) was measured by adding 10 μM pregabalin. The binding of the test compound was measured at five different concentrations. After 60 min incubation at 27° C., binding reaction was terminated by filtering through Multiscreen GF/C (Millipore) presoaked in 0.5% polyethyleneimine in Vacuum Manifold Station, followed by 3 washes with ice-cold filtration buffer containing 50 mM Tris-HCl, pH 7.4. Filter plates were dried at 60° C. for 1 hour and 30 μl of scintillation cocktail were added to each well before radioactivity reading. Readings were performed in a Trilux 1450 Microbeta radioactive counter (Perkin Elmer).

[2] = transfected CHO-K1 cell membranes, 1 nM [3H]-DAMGO, read-out: Binding μ (Ki)
[3] = human α2δ-1 enriched membranes, 15 nM [3H]-Gabapentin, read-out: Binding α2δ-1 (Ki)

T1 sequence (P35372 whole entry): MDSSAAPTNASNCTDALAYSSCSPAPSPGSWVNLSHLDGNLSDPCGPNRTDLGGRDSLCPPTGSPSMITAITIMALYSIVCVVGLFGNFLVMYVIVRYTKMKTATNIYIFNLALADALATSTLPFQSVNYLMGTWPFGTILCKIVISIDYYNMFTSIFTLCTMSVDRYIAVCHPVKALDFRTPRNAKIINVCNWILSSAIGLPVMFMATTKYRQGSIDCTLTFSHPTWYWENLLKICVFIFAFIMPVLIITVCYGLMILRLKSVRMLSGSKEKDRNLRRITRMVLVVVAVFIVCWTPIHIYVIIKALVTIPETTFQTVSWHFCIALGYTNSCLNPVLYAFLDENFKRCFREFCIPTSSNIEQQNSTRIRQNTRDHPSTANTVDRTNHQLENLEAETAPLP
Human α2δ-1 subunit of Cav2.2 calcium channel, sequence (P54289 25-1103): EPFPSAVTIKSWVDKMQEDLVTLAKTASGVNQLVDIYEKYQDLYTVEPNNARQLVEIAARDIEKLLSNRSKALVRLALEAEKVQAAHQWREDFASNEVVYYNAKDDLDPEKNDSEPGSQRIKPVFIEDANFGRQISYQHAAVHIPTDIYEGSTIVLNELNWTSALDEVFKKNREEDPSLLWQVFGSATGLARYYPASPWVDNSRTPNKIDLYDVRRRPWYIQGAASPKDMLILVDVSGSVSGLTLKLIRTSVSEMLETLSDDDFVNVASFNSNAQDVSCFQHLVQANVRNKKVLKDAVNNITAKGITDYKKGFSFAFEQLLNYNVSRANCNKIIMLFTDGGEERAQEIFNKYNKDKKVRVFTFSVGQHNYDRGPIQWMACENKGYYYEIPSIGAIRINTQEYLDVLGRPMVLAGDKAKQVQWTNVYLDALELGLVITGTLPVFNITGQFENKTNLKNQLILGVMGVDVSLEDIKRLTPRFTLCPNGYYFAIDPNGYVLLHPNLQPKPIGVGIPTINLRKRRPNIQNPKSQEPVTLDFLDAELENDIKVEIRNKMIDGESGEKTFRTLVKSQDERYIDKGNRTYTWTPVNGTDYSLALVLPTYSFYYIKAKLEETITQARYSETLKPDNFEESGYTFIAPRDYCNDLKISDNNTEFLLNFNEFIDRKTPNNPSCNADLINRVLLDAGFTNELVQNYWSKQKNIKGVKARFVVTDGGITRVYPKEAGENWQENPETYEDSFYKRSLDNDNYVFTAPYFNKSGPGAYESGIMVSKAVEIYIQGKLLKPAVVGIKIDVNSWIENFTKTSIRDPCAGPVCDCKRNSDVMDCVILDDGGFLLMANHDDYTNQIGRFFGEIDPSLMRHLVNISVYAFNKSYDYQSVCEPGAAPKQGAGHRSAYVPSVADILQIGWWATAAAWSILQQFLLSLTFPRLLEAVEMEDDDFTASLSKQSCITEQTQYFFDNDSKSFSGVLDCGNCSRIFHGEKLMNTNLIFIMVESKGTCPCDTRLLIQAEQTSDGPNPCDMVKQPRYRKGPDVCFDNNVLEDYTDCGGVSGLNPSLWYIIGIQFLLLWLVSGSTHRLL

| Compound | Ki (human μ-opioid receptor; [2]) | Ki [1, 3] | Ki (human μ-opioid receptor) | Ki [1] |
| --- | --- | --- | --- | --- |
| Cc1nnc(N(C)C)c2nn(-c3ccccc3OC(CCNC3CC3)c3ccccc3)c(C)c12 (centres unmarked) [Example 27, 2-(2-(3-(cyclopropylamino)-1-phenylpropoxy)phenyl)-N,N,3,4-tetramethyl-2H-pyrazolo[3,4-d]pyridazin-7-amine] |  |  | 100 to 500 nM | 500 to 5000 nM |
| CCN(C)c1nnc(C)c2c(C)n(-c3ccccc3OC(CCNC)c3ccccc3)nc12 (centres unmarked) [Example 37, N-ethyl-N,3,4-trimethyl-2-(2-(3-(methylamino)-1-phenylpropoxy)phenyl)-2H-pyrazolo[3,4-d]pyridazin-7-amine] |  |  | 100 to 500 nM | 500 to 5000 nM |
| CNCCC(Oc1ccccc1-n1nc2c(N3CCC3)nnc(C)c2c1C)c1ccccc1 (centres unmarked) [Example 39, 3-(2-(7-(azetidin-1-yl)-3,4-dimethyl-2H-pyrazolo[3,4-d]pyridazin-2-yl)phenoxy)-N-methyl-3-phenylpropan-1-amine] | > 500 nM | 500 to 5000 nM |  |  |
| CNCCCOc1ccccc1-n1nc2c(N(C)Cc3ccccc3)nnc(C)c2c1C [Example 40, N-benzyl-N,3,4-trimethyl-2-(2-(3-(methylamino)propoxy)phenyl)-2H-pyrazolo[3,4-d]pyridazin-7-amine] | > 500 nM | 500 to 5000 nM |  |  |
| CNCCC(Oc1ccccc1-n1nc2c(N(C)C)nnc(C)c2c1C)c1ccccc1F (centres unmarked) [Example 41, 2-(2-(1-(2-fluorophenyl)-3-(methylamino)propoxy)phenyl)-N,N,3,4-tetramethyl-2H-pyrazolo[3,4-d]pyridazin-7-amine] | > 500 nM | 500 to 5000 nM |  |  |
| CNCCC(Oc1ccccc1-n1nc2c(N(C)C)nnc(C)c2c1C)c1ccc(F)cc1 (centres unmarked) [Example 42, 2-(2-(1-(4-fluorophenyl)-3-(methylamino)propoxy)phenyl)-N,N,3,4-tetramethyl-2H-pyrazolo[3,4-d]pyridazin-7-amine] |  |  | > 500 nM | < 500 nM |
| COCC(CCN(C)Cc1ccccc1)Oc1ccccc1-n1nc2c(N(C)C)nnc(C)c2c1C (centres unmarked) [Example 43, 2-(2-((4-(benzyl(methyl)amino)-1-methoxybutan-2-yl)oxy)phenyl)-N,N,3,4-tetramethyl-2H-pyrazolo[3,4-d]pyridazin-7-amine] | > 500 nM | 500 to 5000 nM |  |  |
| CNCCC(Oc1ccccc1-n1nc2c(N(C)C)nnc(C)c2c1C)c1cccc(F)c1 (centres unmarked) [Example 44, 2-(2-(1-(3-fluorophenyl)-3-(methylamino)propoxy)phenyl)-N,N,3,4-tetramethyl-2H-pyrazolo[3,4-d]pyridazin-7-amine] |  |  | 100 to 500 nM | < 500 nM |
| CNCc1cccc(COc2ccccc2-n2nc3c(N(C)C)nnc(C)c3c2C)c1 [Example 45, N,N,3,4-tetramethyl-2-(2-((3-((methylamino)methyl)benzyl)oxy)phenyl)-2H-pyrazolo[3,4-d]pyridazin-7-amine] | > 500 nM | 500 to 5000 nM |  |  |
| CNCCCC(Oc1ccccc1-n1nc2c(N(C)C)nnc(C)c2c1C)c1ccccc1 (centres unmarked) [Example 46, N,N,3,4-tetramethyl-2-(2-(4-(methylamino)-1-phenylbutoxy)phenyl)-2H-pyrazolo[3,4-d]pyridazin-7-amine] | > 500 nM | 500 to 5000 nM |  |  |
| CCNCCC(Oc1ccccc1-n1nc2c(N(C)C)nnc(C)c2c1C)c1cccc(F)c1 (centres unmarked) [Example 47, 2-(2-(3-(ethylamino)-1-(3-fluorophenyl)propoxy)phenyl)-N,N,3,4-tetramethyl-2H-pyrazolo[3,4-d]pyridazin-7-amine] |  |  | 100 to 500 nM | < 500 nM |
| CNCCC(Oc1ccccc1-n1nc2c(N(C)C)nnc(C)c2c1C)c1cc(F)cc(F)c1 (centres unmarked) [Example 48, 2-(2-(1-(3,5-difluorophenyl)-3-(methylamino)propoxy)phenyl)-N,N,3,4-tetramethyl-2H-pyrazolo[3,4-d]pyridazin-7-amine] | > 500 nM | 500 to 5000 nM |  |  |
| Cc1nnc(N(C)C)c2nn(-c3ccccc3O[C@H](c3ccccc3)[C@@H]3CNCCO3)c(C)c12 [Example 49, N,N,3,4-tetramethyl-2-(2-((R)-((S)-morpholin-2-yl)(phenyl)methoxy)phenyl)-2H-pyrazolo[3,4-d]pyridazin-7-amine] | > 500 nM | 500 to 5000 nM |  |  |
| Cc1nnc(N(C)C)c2nn(-c3ccccc3OC3CCNC3)c(C)c12 (centres unmarked) [Example 50, N,N,3,4-Tetramethyl-2-(2-(pyrrolidin-3-yloxy)phenyl)-2H-pyrazolo[3,4-d]pyridazin-7-amine] | > 500 nM | > 5000 nM |  |  |
| CNCCC(COC)Oc1ccccc1-n1nc2c(N(C)C)nnc(C)c2c1C (centres unmarked) [Example 51, 2-(2-((1-methoxy-4-(methylamino)butan-2-yl)oxy)phenyl)-N,N,3,4-tetramethyl-2H-pyrazolo[3,4-d]pyridazin-7-amine] | > 500 nM | > 5000 nM |  |  |

Second part, led by results:

| Ki (human μ-opioid receptor; [2]) | Ki [1, 3] | Compound | Ki (human μ-opioid receptor) | Ki [1] |
| --- | --- | --- | --- | --- |
| > 500 nM | 500 to 5000 nM | CNCCC(Oc1ccc(Br)cc1-n1nc2c(N(C)C)nnc(C)c2c1C)c1ccccc1 (centres unmarked) [Example 28, 2-(5-bromo-2-(3-(methylamino)-1-phenylpropoxy)phenyl)-N,N,3,4-tetramethyl-2H-pyrazolo[3,4-d]pyridazin-7-amine] |  |  |
| > 500 nM | 500 to 5000 nM | Cc1nnc(N(C)C)c2nn(-c3ccccc3OCC3NCCc4ccccc43)c(C)c12 (centres unmarked) [Example 29, N,N,3,4-tetramethyl-2-(2-((1,2,3,4-tetrahydroisoquinolin-1-yl)methoxy)phenyl)-2H-pyrazolo[3,4-d]pyridazin-7-amine] |  |  |
| > 500 nM | > 5000 nM | Cc1nnc(N(C)C)c2nn(-c3ccccc3OCC3CNCc4ccccc43)c(C)c12 (centres unmarked) [Example 30, N,N,3,4-tetramethyl-2-(2-((1,2,3,4-tetrahydroisoquinolin-4-yl)methoxy)phenyl)-2H-pyrazolo[3,4-d]pyridazin-7-amine] |  |  |
| > 500 nM | 500 to 5000 nM | Cc1nnc(N(C)C)c2nn(-c3ccccc3OCCCNCCc3ccccc3)c(C)c12 [Example 31, N,N,3,4-tetramethyl-2-(2-(3-(phenethylamino)propoxy)phenyl)-2H-pyrazolo[3,4-d]pyridazin-7-amine] |  |  |
| > 500 nM | 500 to 5000 nM | Cc1nnc(N(C)C)c2nn(-c3ccccc3OC3CNCc4ccccc43)c(C)c12 (centres unmarked) [Example 32, N,N,3,4-tetramethyl-2-(2-((1,2,3,4-tetrahydroisoquinolin-4-yl)oxy)phenyl)-2H-pyrazolo[3,4-d]pyridazin-7-amine] |  |  |
| > 500 nM | 500 to 5000 nM | CNCCC(Oc1ccccc1-n1nc2c(N(C)C)nnc(C)c2c1C)c1nccs1 (centres unmarked) [Example 33, N,N,3,4-tetramethyl-2-(2-(3-(methylamino)-1-(thiazol-2-yl)propoxy)phenyl)-2H-pyrazolo[3,4-d]pyridazin-7-amine] |  |  |
| > 500 nM | 500 to 5000 nM | Cc1nnc(N(C)C)c2nn(-c3ccccc3OC(c3ccccc3)C3CNC3)c(C)c12 (centres unmarked) [Example 34, 2-(2-(azetidin-3-yl(phenyl)methoxy)phenyl)-N,N,3,4-tetramethyl-2H-pyrazolo[3,4-d]pyridazin-7-amine] |  |  |
| > 500 nM | 500 to 5000 nM | CNCCC(Oc1ccccc1-n1nc2c(N3CC(OC)C3)nnc(C)c2c1C)c1ccccc1 (centres unmarked) [Example 35, 3-(2-(7-(3-methoxyazetidin-1-yl)-3,4-dimethyl-2H-pyrazolo[3,4-d]pyridazin-2-yl)phenoxy)-N-methyl-3-phenylpropan-1-amine] |  |  |
| > 500 nM | 500 to 5000 nM | CNCCC(Oc1ccccc1-n1nc2c(N3CCCC3)nnc(C)c2c1C)c1ccccc1 (centres unmarked) [Example 36, 3-(2-(3,4-dimethyl-7-(pyrrolidin-1-yl)-2H-pyrazolo[3,4-d]pyridazin-2-yl)phenoxy)-N-methyl-3-phenylpropan-1-amine] |  |  |
| > 500 nM | 500 to 5000 nM | Cc1nnc(N(C)C)c2nn(-c3ccccc3OC(CCN)c3ccccc3)c(C)c12 (centres unmarked) [Example 38, 2-(2-(3-amino-1-phenylpropoxy)phenyl)-N,N,3,4-tetramethyl-2H-pyrazolo[3,4-d]pyridazin-7-amine] |  |  |
